Legend:
Human cathepsin S = Human cathepsin S (Homo sapiens, UniProt P25774); test: Cathepsin S assay; format: biochemical
Experimental: (§1) Solutions of test compounds in varying concentrations were prepared in 10 μL of dimethyl sulfoxide (DMSO) and then diluted into assay buffer (40 μL, comprising: MES, 50 mM (pH 6.5); EDTA, 2.5 mM; and NaCl, 100 mM); β-mercaptoethanol, 2.5 mM; and BSA, 0.00%. Human cathepsin S (0.05 pMoles in 25 μL of assay buffer) was added to the dilutions. The assay solutions were mixed for 5-10 seconds on a shaker plate, covered and incubated for 30 min at room temperature. Z-Val-Val-Arg-AMC (4 nMoles in 25 μL of assay buffer containing 10% DMSO) was added to the assay solutions and hydrolysis was followed spectrophotometrically (at λ 460 nm) for 5 min. Apparent inhibition constants (Ki) were calculated from the enzyme progress curves using standard mathematical models.

cathepsin B = cathepsin B (Homo sapiens, UniProt P07858); test: Cathepsin B assay; format: biochemical
Experimental: Solutions of test compounds in varying concentrations were prepared in 101 μL of dimethyl sulfoxide (DMSO) and then diluted into assay buffer (40 μL, comprising: N,N-bis(2-hydroxyethyl)-2-aminoethanesulfonic acid (BES), 50 mM (pH 6); polyoxyethylenesorbitan monolaurate, 0.05%; and dithiothreitol (DTT), 2.5 mM). Human cathepsin B (0.025 pMoles in 25 μL of assay buffer) was added to the dilutions. The assay solutions were mixed for 5-10 seconds on a shaker plate, covered and incubated for 30 min at room temperature. Z-FR-AMC (20 nMoles in 25 μL of assay buffer) was added to the assay solutions and hydrolysis was followed spectrophotometrically at (λ 460 nm) for 5 min. Apparent inhibition constants (Ki) were calculated from the enzyme progress curves using standard mathematical models.

cathepsin L = cathepsin L (Homo sapiens, UniProt P07711); test: Cathepsin L assay; format: biochemical
Experimental: (§2) Solutions of test compounds in varying concentrations were prepared in 10 μL of dimethyl sulfoxide (DMSO) and then diluted into assay buffer (40 μL, comprising: MES, 50 mM (pH 5.5); EDTA, 2.5 mM; and DTT, 2.5 mM). Human cathepsin L (0.05 pMoles in 25 μL of assay buffer) was added to the dilutions. The assay solutions were mixed for 5-10 seconds on a shaker plate, covered and incubated for 30 min at room temperature. Z-Phe-Arg-AMC (1 nMoles in 25 μL of assay buffer) was added to the assay solutions and hydrolysis was followed spectrophotometrically at (λ 460 nm) for 5 min. Apparent inhibition constants (Ki) were calculated from the enzyme progress curves using standard mathematical models.

Human Cathepsin V = Human Cathepsin V (Homo sapiens, UniProt O60911); test: Cathepsin V assay; format: biochemical
Experimental: The assays were performed similarly to those described above. Human Cathepsin V: The buffer used to assay this enzyme consisted of: 50 mM MES (pH 6.5), 2.5 mM DTT, 2.5 mM EDTA, 100 mM NaCl, 0.01% BSA and 10% DMSO. Recombinant human cathepsin V was supplied at 2.0 nM. Substrate, Z-Phe-Arg-AMC, was supplied at 25 μM. Apparent inhibition constants (Ki) were calculated from the enzyme progress curves using standard mathematical models.

[1] = biological target: T1, Cathepsin K (huRab), humanized rabbit cathepsin K enzyme (Oryctolagus cuniculus, UniProt P43236); test: Cathepsin K (huRab) assay; format: biochemical
T1 sequence (P43236 1-329 Y175D/V274L): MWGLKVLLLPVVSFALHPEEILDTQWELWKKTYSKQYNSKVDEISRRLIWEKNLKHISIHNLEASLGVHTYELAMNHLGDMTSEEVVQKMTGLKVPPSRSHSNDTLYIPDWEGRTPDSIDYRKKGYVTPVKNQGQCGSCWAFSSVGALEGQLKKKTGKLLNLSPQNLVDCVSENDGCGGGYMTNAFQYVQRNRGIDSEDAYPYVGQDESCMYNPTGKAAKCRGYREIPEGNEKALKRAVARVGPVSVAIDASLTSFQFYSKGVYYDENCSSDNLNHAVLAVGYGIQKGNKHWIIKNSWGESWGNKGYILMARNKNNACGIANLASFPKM
Experimental: FIG. 5. Cathepsin inhibitory profiles for Compound A, Compound B, and Compound C. All human enzymes with the exception of CatK HuRab. This is a humanized rabbit cathepsin K enzyme where the key amino acids in the active site of rabbit cathepsin K have been converted to match the amino acids found in the active site of human cathepsin K. The remainder of the enzyme is rabbit. Methods are as set forth in the Examples.
as §2, with “K (0.0906” for “L (0.05”, “(4” for “(1”

Human cathepsin F = biological target: T2, Human cathepsin F (Homo sapiens, UniProt Q9UBX1); test: Cathepsin F assay; format: biochemical
T2 sequence (Q9UBX1 271-484): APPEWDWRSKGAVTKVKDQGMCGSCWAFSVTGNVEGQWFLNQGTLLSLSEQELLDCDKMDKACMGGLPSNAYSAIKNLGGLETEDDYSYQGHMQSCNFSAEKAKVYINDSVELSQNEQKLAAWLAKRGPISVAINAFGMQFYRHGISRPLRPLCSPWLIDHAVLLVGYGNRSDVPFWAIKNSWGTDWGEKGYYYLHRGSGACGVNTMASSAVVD
Experimental: as §1, with “DTT,” for “β-mercaptoethanol,”, “0.01%.” for “0.00%.”, “F (0.1” for “S (0.05”, “Z-Phe-Arg-AMC (2” for “Z-Val-Val-Arg-AMC (4”, “Apparent inhibition constants (Ki) were calculated from the enzyme progress curves using standard mathematical models.” left out

human osteoclasts = test: Inhibition of bone resorption in vitro (human osteoclasts on bovine bone slices); format: cell-based; settings: CTX/TRACP5b, FIG. 7
Experimental: FIG. 7. Inhibition of Bone Resorption In Vitro. […] Compounds of the present invention were added to cultured human differentiated bone marrow-derived osteoclasts cultured on bovine bone slices allowing them to resorb bone. Tartrate-resistant acid phosphatase 5b activity (TRACP 5b) was measured in the culture medium as an index of the number of osteoclasts formed in each well, and C-terminal cross-linked telopeptides of type 1 collagen (CTX) was measured in the culture medium to quantitate bone resorption. […] The irreversible protease inhibitor E64 as well as the reversible specific cathepsin K protease inhibitor odanacatib were included as assay controls.
Compound A was assessed in an in vitro assay for its efficacy in blocking resorption activity of human osteoclasts in vitro. Bone marrow-derived human osteoclast precursor cells were cultured on bovine bone slices for 7 days in conditions that allowed osteoclast differentiation, and allowing them to differentiate into bone-resorbing osteoclasts. After completion of osteoclast differentiation at day 7, the culture medium was removed and new culture medium for assessing osteoclast activity was added. Test compounds including Compound A was added to the cultures at this stage on day 7. Cultures were then allowed to continue for an additional 3 days allowing them to resorb bone. Concentrations of Compound assessed were 1, 3, 10, 30, 100, 300, and 1000 nM in 8 replicates. Tartrate-resistant acid phosphatase 5b activity (TRACP 5b) was measured from the culture medium collected on day 7 indicating the number of mature osteoclasts formed in each well before adding compounds. C-terminal cross-linked telopeptides of type 1 collagen (CTX) were measured form the culture medium collected at day 10 to quantitate bone resorption during days 7-10. […] The study was performed in […] with each containing a baseline group including vehicle, a control group with a reference compound E64, and 7 concentrations of the test compound to determine an EC50 for inhibition of resorption activity.

Sequence of Human Cathepsin V (O60911 114-334): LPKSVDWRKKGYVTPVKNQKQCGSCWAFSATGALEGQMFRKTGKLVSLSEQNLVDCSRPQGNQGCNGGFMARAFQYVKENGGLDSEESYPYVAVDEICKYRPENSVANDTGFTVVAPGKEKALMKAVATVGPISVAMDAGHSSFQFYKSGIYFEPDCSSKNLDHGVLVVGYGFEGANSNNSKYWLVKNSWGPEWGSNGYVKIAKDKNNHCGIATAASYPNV
Sequence of cathepsin L (P07711 114-333): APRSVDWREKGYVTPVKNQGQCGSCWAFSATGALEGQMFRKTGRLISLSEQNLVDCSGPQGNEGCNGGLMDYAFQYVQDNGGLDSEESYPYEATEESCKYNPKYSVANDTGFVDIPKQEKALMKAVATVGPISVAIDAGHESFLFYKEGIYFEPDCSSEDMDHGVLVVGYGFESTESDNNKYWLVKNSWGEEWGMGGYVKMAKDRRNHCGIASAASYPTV
Sequence of Human cathepsin S (P25774 115-331): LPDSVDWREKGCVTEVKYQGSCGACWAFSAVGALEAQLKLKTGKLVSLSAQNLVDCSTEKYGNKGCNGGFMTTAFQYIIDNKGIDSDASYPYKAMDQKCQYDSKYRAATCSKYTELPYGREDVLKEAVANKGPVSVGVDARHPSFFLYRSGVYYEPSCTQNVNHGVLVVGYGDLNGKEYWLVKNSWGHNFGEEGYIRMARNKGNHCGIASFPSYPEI

IC50 (Human cathepsin S): 0.34 nM
IC50 (cathepsin B): 2.5 nM
IC50 (cathepsin L): 0.3 nM
IC50 (Human Cathepsin V): < 0.25 nM
IC50 [1]: 28 nM
IC50 (Human cathepsin F): 74 nM
Structure (SMILES): CC[C@H](NC(=O)[C@H](CS(=O)(=O)Cc1cccnc1)N[C@@H](c1ccc(F)cc1)C(F)(F)F)C(=O)C(=O)NC1CC1 [Compound F, (S)—N-cyclopropyl-2-oxo-3-((R)-3-((pyridin-3-ylmethyl)sulfonyl)-2-(((S)-2,2,2-trifluoro-1-(4-fluorophenyl)ethyl)amino)propanamido)pentanamide]
inhibition of bone resorption in vitro (human osteoclasts): inhibit bone resorption in vitro, with similar potency to Compound A

From patent publication US8680152B2, “Cathepsin inhibitors for the treatment of bone cancer and bone cancer pain” (Virobay, Inc., priority 2011, dated 2014)
